Data as given in PMC6508583 (Journal of the American Chemical Society, 2019).
≈ marks a conversion by molar mass, not a printed value. Read-outs that look alike come from different tables or passages of the source.

How the values were obtained:
[1] = system: wild-type bacterial ribosome; test: Cell-free translation assay, wild-type bacterial ribosome; assay type: biochemical; conditions: in vitro translation inhibition
[2] = system: Mit13 hybrid ribosome (decoding A site of the human mitochondrial ribosome); assay type: biochemical; conditions: for Selectivity Mit 13: Mit13 over wt bacterial ribosome; for IC50 Mit13: in vitro translation inhibition, Mit13 hybrid ribosome
[3] = system: A1555G mutant mitochondrial hybrid ribosome; assay type: biochemical, human; conditions: for Selectivity A1555G: A1555G over wt bacterial ribosome; for IC50 A1555G: in vitro translation inhibition, A1555G mutant mitochondrial hybrid ribosome
[4] = system: Cyt14 hybrid ribosome (decoding A site of the human cytoplasmic ribosome); assay type: biochemical; conditions: for Selectivity Cyt14: Cyt14 over wt bacterial ribosome; for IC50 Cyt 14: in vitro translation inhibition, Cyt14 hybrid ribosome
MRSA = test: Antibacterial activity against reference strains: MRSA; assay type: cell-based; conditions: for Antibacterial activity (MIC) MRSA AG038: strain AG038; for Antibacterial activity (MIC) MRSA AG042: strain AG042 carries the AAC(6)’, ANT(4’,4’’) and APH(3’) genes; for MIC: Staphylococcus aureus, MRSA
K. pneumoniae = test: Antibacterial activity against reference strains: K. pneumoniae; assay type: cell-based; conditions: strain AG215
E. cloacae = test: Antibacterial activity against reference strains: E. cloacae; assay type: cell-based; conditions: for Antibacterial activity (MIC) E. cloacae AG290: strain AG290
A. baumannii = test: Antibacterial activity against reference strains: A. baumannii; assay type: cell-based; conditions: strain AG225
E. coli = test: Antibacterial activity against reference strains: E. coli; conditions: for Antibacterial activity (MIC) E. coli AG003: strain AG003 carries the AAC(3) gene; for Antibacterial activity (MIC) E. coli AG001: strain AG001; for MIC: Escherichia coli
P. aeruginosa = test: Antibacterial activity against reference strains: P. aeruginosa; conditions: for Antibacterial activity (MIC) P. aeruginosa AG031: strain AG031 carries the APH(3’) gene; for Antibacterial activity (MIC) P. aeruginosa AG220: strain AG220 carries the APH(3’) gene
[5] = system: E. coli carrying specific resistance determinants; test: Activity against wild-type and engineered E. coli carrying specific AMEs or RMTs; assay type: cell-based; conditions: for MIC: Escherichia coli
[6] = system: E. coli clinical isolates carrying two or more resistance determinants; test: Activity against E. coli clinical isolates with multiple resistance determinants; assay type: cell-based; conditions: Escherichia coli
[7] = system: E. cloacae clinical isolates carrying two or more resistance determinants; assay type: cell-based; conditions: Enterobacter cloacae
[8] = system: E coli 70S ribosome (helix 44, A1408); test: Quantitative dimethyl sulfate footprinting of the 70S ribosome; assay type: binding; conditions: read-out: apparent Kd; DMS footprinting, % protection of N1 of A1408, E. coli 70S ribosome

SMILES: NC[C@@H]1O[C@H](O[C@H]2[C@@H](O)[C@H](O[C@@H]3[C@@H](O)[C@H](N)C[C@H](N)[C@H]3O[C@H]3O[C@H](CO)C[C@H](O)[C@H]3N)O[C@@H]2CO)[C@H](N)[C@@H](O)[C@@H]1O [Compound 2, 4’-deoxy paromomycin]
- IC50 wt [1]: 0.05 µg/mL (≈ 0.0834 µM)
- Selectivity Mit 13 [2]: 1480
- IC50 Mit13 [2]: 74 µg/mL (≈ 123 µM)
- Selectivity A1555G [3]: 480
- IC50 A1555G [3]: 24 µg/mL (≈ 40 µM)
- Selectivity Cyt14 [4]: 560
- IC50 Cyt 14 [4]: 28 µg/mL (≈ 46.7 µM)
- Antibacterial activity (MIC) MRSA AG038 (MRSA): 16 µg/mL
- Antibacterial activity (MIC) MRSA AG042 (MRSA): 8 to 16 µg/mL
- Antibacterial activity (MIC) K. pneumoniae AG215 (K. pneumoniae): 4 µg/mL
- Antibacterial activity (MIC) E. cloacae AG290 (E. cloacae): 4 to 8 µg/mL
- Antibacterial activity (MIC) A. baumannii AG225 (A. baumannii): 8 µg/mL
- Antibacterial activity (MIC) E. coli AG003 (E. coli): 32 µg/mL

SMILES: NCC1OC(OC2C(CO)OC(OC3C(O)C(N)CC(N)C3OC3OC(CO)C(CC(O)CO)C(O)C3N)C2O)C(N)C(O)C1O (stereo not shown) [Compound 37]
- IC50 wt [1]: 0.10 µg/mL (≈ 0.148 µM)
- Selectivity Mit 13 [2]: 320
- IC50 Mit13 [2]: 32 µg/mL (≈ 47.5 µM)
- Selectivity A1555G [3]: 330
- IC50 A1555G [3]: 33 µg/mL (≈ 49 µM)
- Selectivity Cyt14 [4]: 590
- IC50 Cyt 14 [4]: 59 µg/mL (≈ 87.6 µM)
- Antibacterial activity (MIC) MRSA AG038 (MRSA): 4 µg/mL
- Antibacterial activity (MIC) MRSA AG042 (MRSA): 8 µg/mL
- Antibacterial activity (MIC) K. pneumoniae AG215 (K. pneumoniae): 8 µg/mL
- Antibacterial activity (MIC) E. cloacae AG290 (E. cloacae): 4 to 8 µg/mL
- Antibacterial activity (MIC) A. baumannii AG225 (A. baumannii): 8 µg/mL
- Antibacterial activity (MIC) E. coli AG001 (E. coli): 16 µg/mL
- Antibacterial activity (MIC) E. coli AG003 (E. coli): 8 µg/mL
- Antibacterial activity (MIC) P. aeruginosa AG031 (P. aeruginosa): 16 to 32 µg/mL
- Antibacterial activity (MIC) P. aeruginosa AG220 (P. aeruginosa): 16 µg/mL

SMILES: CNC(C)C1CCC(N)C(OC2C(N)CC(N)C(OC3OCC(C)(O)C(NC)C3O)C2O)O1 (stereo not shown) [Gentamicin]
- IC50 wt [1]: 0.02 µg/mL (≈ 0.0419 µM)
- IC50 Mit13 [2]: 9 µg/mL (≈ 18.8 µM)
- IC50 A1555G [3]: 0.5 µg/mL (≈ 1.05 µM)
- IC50 Cyt 14 [4]: 33 µg/mL (≈ 69.1 µM)
- MIC (MRSA; read-out: Antibacterial activity (MIC) MRSA AG038): 0.25 µg/mL (≈ 0.523 µM)
- MIC (MRSA; read-out: Antibacterial activity (MIC) MRSA AG042): 64 µg/mL (≈ 134 µM)
- MIC (E. cloacae; Enterobacter cloacae, read-out: Antibacterial activity (MIC) E. cloacae AG290): 0.25 µg/mL (≈ 0.523 µM)
- MIC ([5]; read-out: Activity (MIC) E. coli AG006): 0.5 µg/mL (≈ 1.05 µM)
- MIC ([5]; read-out: Activity (MIC) E. coli AG007): 32 µg/mL (≈ 67 µM)
- MIC ([5]; read-out: Activity (MIC) E. coli AG008): 8 to 16 µg/mL (≈ 16.8 to 33.5 µM)
- MIC ([5]; read-out: Activity (MIC) E. coli AG009): 1 to 2 µg/mL (≈ 2.09 to 4.19 µM)
- MIC ([5]; read-out: Activity (MIC) E. coli AG036): 0.5 µg/mL (≈ 1.05 µM)
- MIC ([5]; read-out: Activity (MIC) E. coli AG103): > 128 µg/mL
- MIC ([5]; read-out: Activity (MIC) E. coli AG105): 32 µg/mL (≈ 67 µM)
- MIC ([5]; read-out: Activity (MIC) E. coli AG166): 0.5 µg/mL (≈ 1.05 µM)
- MIC ([6]; read-out: Activity (MIC) E. coli isolate 201430298): 128 µg/mL (≈ 268 µM)
- MIC ([6]; read-out: Activity (MIC) E. coli isolate 201441114): 16 µg/mL (≈ 33.5 µM)
- MIC ([6]; read-out: Activity (MIC) E. coli isolate 2014251408): 256 µg/mL (≈ 536 µM)
- MIC ([6]; read-out: Activity (MIC) E. coli isolate 2014405344): > 256 µg/mL
- MIC ([7]; read-out: Activity (MIC) E. cloacae isolate 201333207): 64 µg/mL (≈ 134 µM)
- MIC ([7]; read-out: Activity (MIC) E. cloacae isolate 201385168): > 256 µg/mL
- MIC ([7]; read-out: Activity (MIC) E. cloacae isolate 201430601): 16 µg/mL (≈ 33.5 µM)
- MIC ([7]; read-out: Activity (MIC) E. cloacae isolate 201435487): 64 µg/mL (≈ 134 µM)
- MIC (E. coli; read-out: Antibacterial activity (MIC) E. coli AG001): 1 to 2 µg/mL (≈ 2.09 to 4.19 µM)
- MIC (E. coli; read-out: Antibacterial activity (MIC) E. coli AG003): 32 to 64 µg/mL (≈ 67 to 134 µM)

SMILES: CCOC1C(CO)OC(OC2C(N)CC(N)C(O)C2OC2OC(CO)C(OC3OC(CN)C(O)C(O)C3N)C2O)C(N)C1O (stereo not shown) [Compound 3]
- IC50 wt [1]: 0.08 µg/mL (≈ 0.124 µM)
- Selectivity Mit 13 [2]: 1075
- IC50 Mit13 [2]: 86 µg/mL (≈ 134 µM)
- Selectivity A1555G [3]: 1188
- IC50 A1555G [3]: 95 µg/mL (≈ 148 µM)
- Selectivity Cyt14 [4]: 1100
- IC50 Cyt 14 [4]: 88 µg/mL (≈ 137 µM)
- Antibacterial activity (MIC) MRSA AG038 (MRSA): 8 to 16 µg/mL
- Antibacterial activity (MIC) MRSA AG042 (MRSA): 8 to 16 µg/mL
- Antibacterial activity (MIC) K. pneumoniae AG215 (K. pneumoniae): 8 µg/mL
- Antibacterial activity (MIC) E. cloacae AG290 (E. cloacae): 8 µg/mL
- Antibacterial activity (MIC) A. baumannii AG225 (A. baumannii): 16 to 32 µg/mL
- Kd [8]: 1030 ± 200 nM
- Activity (MIC) E. coli AG006 ([5]; strain AG006, WT): 8 to 16 µg/mL
- Activity (MIC) E. coli AG007 ([5]; strain AG007, AAC(3)): 16 to 32 µg/mL
- Activity (MIC) E. coli AG008 ([5]; strain AG008, ANT(2’’)): 8 µg/mL
- Activity (MIC) E. coli AG009 ([5]; strain AG009, AAC(6’)): 16 µg/mL
- Activity (MIC) E. coli AG036 ([5]; strain AG036, ANT(4′,4′′)): 8 to 16 µg/mL
- Activity (MIC) E. coli AG103 ([5]; strain AG103, armA): ≥64 µg/mL
- Activity (MIC) E. coli AG105 ([5]; strain AG105, AAC(2′)): 8 to 16 µg/mL
- Activity (MIC) E. coli AG166 ([5]; strain AG166, APH(3′)): 64 µg/mL
- Antibacterial activity (MIC) E. coli AG001 (E. coli): 16 µg/mL
- Antibacterial activity (MIC) E. coli AG003 (E. coli): 32 µg/mL
- Antibacterial activity (MIC) P. aeruginosa AG031 (P. aeruginosa): >64 µg/mL
- Antibacterial activity (MIC) P. aeruginosa AG220 (P. aeruginosa): >64 µg/mL
